Test system: IL-4 induced proliferation of CTLL cell line
Assay: CTLL Proliferation Assay (IL-4)
Type: cell-based, murine
Settings: CTLL cells, exogenous IL-4 (mIL-4), titred peptide; FIGS. 1A-1D, 2
Procedure: CTLL Proliferation Assay: The murine IL-2- and IL-4-responsive CTLL cell line was used to assess the ability of the gamma chain peptides to inhibit the binding of these cytokines to their respective receptors. The cell line proliferates in responses to exogenously added cytokine and inhibition of this proliferation by the peptides would be a result of blocking the cytokines from interacting with their receptors. Briefly, 5000 CTLL cells are added to the wells of a 96 well microtitre plate. Either 10 U/ml r-mIL-2 or 1 ng/ml r-mIL-4 are added to these wells along with titred amounts of the indicated peptides. Cultures are incubated at 37° C. for 24 hours and pulsed with ^3H-TdR for the final 6 hours to indicate amount of proliferation. Wells containing no peptide are deemed the positive response and well containing no peptide and no cytokine are deemed the background (bkg) proliferation. A percent response is calculated as follows: (CPM experimental-CPM bkg)/CPM positive response-CPM bkg). All data are expressed in this manner.

Sequence	effect on cell proliferation in response to exogenous IL-4
CLNLQNLC [gamma-5]	inhibits cell proliferation
CNHEPRFLSC [gamma-4]	inhibits cell proliferation
